# Data taken from paper PMC5811606, “Characterization of ^111In-labeled Glucose-Dependent Insulinotropic Polypeptide as a Radiotracer for Neuroendocrine Tumors” (Scientific Reports, 2018).
# Like-named read-outs stand apart in the source and are kept apart here.
# Experiments:
# [1] = Biodistribution study, BHK-GIPR tumor mice; assay type: in vivo, BALB/c nude mice; conditions: female, mouse, iv, total radioactivity, BHK-GIPR tumor BALB/c nude mice, i.v., 0.2 µg, mean n=5; for tissue uptake at 1 h / tissue uptake at 4 h / tissue uptake at 24 h: BALB/c nude; for tissue uptake at 1 h / tissue to tissue ratio at 1 h: 1 h p.i.; for tissue uptake at 24 h / tissue to tissue ratio at 24 h: 24 h p.i.
# Method: (§1) All animal experiments were approved by the Animal Welfare Body of the Radboud University, Nijmegen, The Netherlands and carried out in accordance with their guidelines. Six to eight weeks old, female BALB/c nude mice and C3H mice were purchased from Janvier labs (Le Genest Saint Isle, France). For all in vivo experiments, 6-8 weeks old female BALB/c nude mice were injected subcutaneously in the right shoulder with 0.2 ml of a 2.5 × 10^7 cells/ml suspension of BHK-GIPR transfected cells or with 0.2 ml of a 2.5 × 10^7 cells/ml suspension of NES2Y cells mixed with matrigel (2:1) in the right shoulder. When the tumor reached a diameter of 2-5 mm, mice were randomly divided in groups.
# (§2) BALB/c nude mice bearing BHK-GIPR transfected tumors were injected intravenously with approximately 3 MBq (peptide dose 0.2 µg = 0.04 nmol) of [Lys^37(^111In-DTPA)]N-acetyl-GIP1-42 via the tail vein. At various time points after injection (1, 4 and 24 hours), mice were euthanized by CO2/O2 suffocation and blood, tumor and other relevant tissues were dissected, weighed and measured in a well type gamma counter. The percentage injected dose per gram (%ID/g) was calculated for each tissue. To determine whether the GIP1-42 uptake was GIPR mediated, 25 µg of unlabeled GIP1-42 was co-injected in a separate group (n = 5) and mice were euthanized four hours post-injection. BALB/c nude mice bearing NES2Y tumors (n = 5) were injected intravenously with approximately 3 MBq (peptide dose 0.2 µg = 0.04 nmol) of [Lys^37(^111In-DTPA)]N-acetyl-GIP1-42 via the tail vein. One hour after injection, mice were euthanized by CO2/O2 suffocation and blood, tumor and other relevant tissues were dissected, weighed and measured in a well type gamma counter. The percentage injected dose per gram (%ID/g) was determined for each tissue. To determine whether the GIP1-42 uptake was GIPR mediated, 25 µg of unlabeled GIP1-42 was co-injected in a separate group (n = 2) and mice were euthanized one hours post-injection.
# [2] = tested on: subcutaneous BHK-GIPR tumors; test: Biodistribution study, BHK-GIPR tumor mice; assay type: in vivo, BALB/c nude mice; conditions: biodistribution studies in BALB/c nude mice, i.v.
# Method: as §1, §2
# [3] = BHK-GIPR tumor, 0.2 ug, read-out: Tumor uptake
# [4] = blood, 0.2 ug, read-out: Blood uptake
# [5] = duodenum, 0.2 ug, read-out: Duodenum uptake
# [6] = heart, 0.2 ug, read-out: Heart uptake
# [7] = kidney, 0.2 ug, read-out: Kidney uptake
# [8] = liver, 0.2 ug, read-out: Liver uptake
# [9] = lung, 0.2 ug, read-out: Lung uptake
# [10] = muscle, 0.2 ug, read-out: Muscle uptake
# [11] = pancreas, 0.2 ug, read-out: Pancreas uptake
# [12] = spleen, 0.2 ug, read-out: Spleen uptake
# [13] = stomach, 0.2 ug, read-out: Stomach uptake
# [14] = tumor/blood, 0.2 ug, read-out: Tumor/Blood
# [15] = tumor/heart, 0.2 ug, read-out: Tumor/Heart
# [16] = tumor/kidney, 0.2 ug, read-out: Tumor/Kidney
# [17] = tumor/muscle, 0.2 ug, read-out: Tumor/Muscle
smiles,measurement,setting,value
"CC[C@H](C)[C@H](NC(=O)[C@H](CO)NC(=O)[C@H](Cc1ccc(O)cc1)NC(=O)[C@H](CC(=O)O)NC(=O)[C@H](CO)NC(=O)[C@@H](NC(=O)[C@H](Cc1ccccc1)NC(=O)[C@@H](NC(=O)CNC(=O)[C@H](CCC(=O)O)NC(=O)[C@H](C)NC(=O)[C@H](Cc1ccc(O)cc1)NC(C)=O)[C@@H](C)O)[C@@H](C)CC)C(=O)N[C@@H](C)C(=O)N[C@@H](CCSC)C(=O)N[C@@H](CC(=O)O)C(=O)N[C@@H](CCCCN)C(=O)N[C@H](C(=O)N[C@@H](Cc1c[nH]cn1)C(=O)N[C@@H](CCC(N)=O)C(=O)N[C@@H](CCC(N)=O)C(=O)N[C@@H](CC(=O)O)C(=O)N[C@@H](Cc1ccccc1)C(=O)N[C@H](C(=O)N[C@@H](CC(N)=O)C(=O)N[C@@H](Cc1c[nH]c2ccccc12)C(=O)N[C@@H](CC(C)C)C(=O)N[C@@H](CC(C)C)C(=O)N[C@@H](C)C(=O)N[C@@H](CCC(N)=O)C(=O)N[C@@H](CCCCN)C(=O)NCC(=O)N[C@@H](CCCCN)C(=O)N[C@@H](CCCCN)C(=O)N[C@@H](CC(N)=O)C(=O)N[C@@H](CC(=O)O)C(=O)N[C@@H](Cc1c[nH]c2ccccc12)C(=O)N[C@@H](CCCCNC(=O)CN(CCN(CCN(CC(=O)O)CC(=O)O)CC(=O)O)CC(=O)O)C(=O)N[C@@H](Cc1c[nH]cn1)C(=O)N[C@@H](CC(N)=O)C(=O)N[C@H](C(=O)N[C@H](C(=O)N[C@@H](CCC(N)=O)C(=O)O)[C@@H](C)O)[C@@H](C)CC)C(C)C)[C@@H](C)CC [[Lys^37(^111In-DTPA)]N-acetyl-GIP1-42, metal not drawn]",tissue uptake at 1 h,[1]; [3],4.69 %ID/g
same,tissue uptake at 4 h,"[1]; BHK-GIPR tumor, 0.2 ug, 4 h p.i., read-out: Tumor uptake",3.27 %ID/g
same,tissue uptake at 24 h,[1]; [3],2 ± 0.2 %ID/g
same,tissue uptake at 4 h,"[1]; BHK-GIPR tumor, 4 h p.i. + xs (25 µg unlabeled GIP1-42), read-out: Tumor uptake",0.8 ± 0.2 %ID/g
same,tissue uptake at 1 h,[1]; [4],0.248 %ID/g
same,tissue uptake at 4 h,"[1]; blood, 0.2 ug, 4 h p.i., read-out: Blood uptake",0.045 %ID/g
same,tissue uptake at 24 h,[1]; [4],0.017 %ID/g
same,tissue uptake at 4 h,"[1]; blood, 4 h p.i. + xs (25 µg unlabeled GIP1-42), read-out: Blood uptake",0.031 %ID/g
same,tissue uptake at 1 h,[1]; [5],0.561 %ID/g
same,tissue uptake at 4 h,"[1]; duodenum, 0.2 ug, 4 h p.i., read-out: Duodenum uptake",0.448 %ID/g
same,tissue uptake at 24 h,[1]; [5],0.378 %ID/g
same,tissue uptake at 4 h,"[1]; duodenum, 4 h p.i. + xs (25 µg unlabeled GIP1-42), read-out: Duodenum uptake",0.392 %ID/g
same,tissue uptake at 1 h,[1]; [6],0.2 %ID/g
same,tissue uptake at 4 h,"[1]; heart, 0.2 ug, 4 h p.i., read-out: Heart uptake",0.116 %ID/g
same,tissue uptake at 24 h,[1]; [6],0.081 %ID/g
same,tissue uptake at 4 h,"[1]; heart, 4 h p.i. + xs (25 µg unlabeled GIP1-42), read-out: Heart uptake",0.096 %ID/g
same,tissue uptake at 1 h,[1]; [7],211 %ID/g
same,tissue uptake at 4 h,"[1]; kidney, 0.2 ug, 4 h p.i., read-out: Kidney uptake",228 %ID/g
same,tissue uptake at 24 h,[1]; [7],173 %ID/g
same,tissue uptake at 4 h,"[1]; kidney, 4 h p.i. + xs (25 µg unlabeled GIP1-42), read-out: Kidney uptake",227 %ID/g
same,tissue uptake at 1 h,[1]; [8],1.1 %ID/g
same,tissue uptake at 4 h,"[1]; liver, 0.2 ug, 4 h p.i., read-out: Liver uptake",1.16 %ID/g
same,tissue uptake at 24 h,[1]; [8],0.695 %ID/g
same,tissue uptake at 4 h,"[1]; liver, 4 h p.i. + xs (25 µg unlabeled GIP1-42), read-out: Liver uptake",1.09 %ID/g
same,tissue uptake at 1 h,[1]; [9],0.545 %ID/g
same,tissue uptake at 4 h,"[1]; lung, 0.2 ug, 4 h p.i., read-out: Lung uptake",0.332 %ID/g
same,tissue uptake at 24 h,[1]; [9],0.184 %ID/g
same,tissue uptake at 4 h,"[1]; lung, 4 h p.i. + xs (25 µg unlabeled GIP1-42), read-out: Lung uptake",0.331 %ID/g
same,tissue uptake at 1 h,[1]; [10],0.135 %ID/g
same,tissue uptake at 4 h,"[1]; muscle, 0.2 ug, 4 h p.i., read-out: Muscle uptake",0.082 %ID/g
same,tissue uptake at 24 h,[1]; [10],0.058 %ID/g
same,tissue uptake at 4 h,"[1]; muscle, 4 h p.i. + xs (25 µg unlabeled GIP1-42), read-out: Muscle uptake",0.068 %ID/g
same,tissue uptake at 1 h,[1]; [11],0.296 %ID/g
same,tissue uptake at 4 h,"[1]; pancreas, 0.2 ug, 4 h p.i., read-out: Pancreas uptake",0.193 %ID/g
same,tissue uptake at 24 h,[1]; [11],0.137 %ID/g
same,tissue uptake at 4 h,"[1]; pancreas, 4 h p.i. + xs (25 µg unlabeled GIP1-42), read-out: Pancreas uptake",0.147 %ID/g
same,tissue uptake at 1 h,[1]; [12],0.603 %ID/g
same,tissue uptake at 4 h,"[1]; spleen, 0.2 ug, 4 h p.i., read-out: Spleen uptake",0.528 %ID/g
same,tissue uptake at 24 h,[1]; [12],0.493 %ID/g
same,tissue uptake at 4 h,"[1]; spleen, 4 h p.i. + xs (25 µg unlabeled GIP1-42), read-out: Spleen uptake",0.519 %ID/g
same,tissue uptake at 1 h,[1]; [13],0.502 %ID/g
same,tissue uptake at 4 h,"[1]; stomach, 0.2 ug, 4 h p.i., read-out: Stomach uptake",0.362 %ID/g
same,tissue uptake at 24 h,[1]; [13],0.258 %ID/g
same,tissue uptake at 4 h,"[1]; stomach, 4 h p.i. + xs (25 µg unlabeled GIP1-42), read-out: Stomach uptake",0.268 %ID/g
same,tissue to tissue ratio at 24 h,"[1]; tumor and lung, 0.2 ug, read-out: Tumor/Lung",11.3
same,tissue to tissue ratio at 1 h,[1]; [14],21.8
same,tissue to tissue ratio at 4 h,"[1]; tumor/blood, 0.2 ug, 4 h p.i., read-out: Tumor/Blood",77.6
same,tissue to tissue ratio at 24 h,[1]; [14],130
same,tissue to tissue ratio at 4 h,"[1]; tumor/blood, 4 h p.i. + xs (25 µg unlabeled GIP1-42), read-out: Tumor/Blood",29.8
same,tissue to tissue ratio at 1 h,[1]; [15],23.6
same,tissue to tissue ratio at 4 h,"[1]; tumor/heart, 0.2 ug, 4 h p.i., read-out: Tumor/Heart",29
same,tissue to tissue ratio at 24 h,[1]; [15],25.5
same,tissue to tissue ratio at 4 h,"[1]; tumor/heart, 4 h p.i. + xs (25 µg unlabeled GIP1-42), read-out: Tumor/Heart",8.89
same,tissue to tissue ratio at 1 h,[1]; [16],0.023
same,tissue to tissue ratio at 4 h,"[1]; tumor/kidney, 0.2 ug, 4 h p.i., read-out: Tumor/Kidney",0.014
same,tissue to tissue ratio at 24 h,[1]; [16],0.011
same,tissue to tissue ratio at 4 h,"[1]; tumor/kidney, 4 h p.i. + xs (25 µg unlabeled GIP1-42), read-out: Tumor/Kidney",0.004
same,tissue to tissue ratio at 1 h,"[1]; tumor/lung, 0.2 ug, read-out: Tumor/Lung",8.64
same,tissue to tissue ratio at 4 h,"[1]; tumor/lung, 0.2 ug, 4 h p.i., read-out: Tumor/Lung",10.1
same,tissue to tissue ratio at 4 h,"[1]; tumor/lung, 4 h p.i. + xs (25 µg unlabeled GIP1-42), read-out: Tumor/Lung",2.68
same,tissue to tissue ratio at 1 h,[1]; [17],35
same,tissue to tissue ratio at 4 h,"[1]; tumor/muscle, 0.2 ug, 4 h p.i., read-out: Tumor/Muscle",40.4
same,tissue to tissue ratio at 24 h,[1]; [17],36.4
same,tissue to tissue ratio at 4 h,"[1]; tumor/muscle, 4 h p.i. + xs (25 µg unlabeled GIP1-42), read-out: Tumor/Muscle",12.4
same,blood clearance,[2],cleared from the blood very rapidly
